Laboratory results published in PubChem BioAssay (NCI).
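Cells were grown in 96-well plates and exposed to each compound for 48 hours at five concentrations; endpoints were interpolated linearly between bracketing concentrations, or set to the highest concentration if not reached. TGI: total growth inhibition.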 Where a SMILES comes first, the peptide text is derived from it. The star is where a group is joined. OSu = O=C1CCC(=O)N1O*

How the values were obtained:
Assay in all cases: growth of human tumour cells (NCI), 48 h
BT-549 breast = test system: BT-549 breast
SK-MEL-5 melanoma = test system: SK-MEL-5 melanoma
T-47D breast = test system: T-47D breast
HCC-2998 colon = test system: HCC-2998 colon
A549 NSCLC = test system: A549 NSCLC
RXF 393 renal = test system: RXF 393 renal
NCI-H460 lung = test system: NCI-H460 lung
DU-145 prostate = test system: DU-145 prostate
PC-3 prostate = test system: PC-3 prostate
UACC-257 melanoma = test system: UACC-257 melanoma
MDA-N = test system: MDA-N

Row | Structure (SMILES) | TGI (BT-549 breast) | TGI (SK-MEL-5 melanoma) | TGI (T-47D breast) | TGI (HCC-2998 colon) | TGI (A549 NSCLC) | TGI (RXF 393 renal) | TGI (NCI-H460 lung) | TGI (DU-145 prostate) | TGI (PC-3 prostate) | TGI (UACC-257 melanoma) | TGI (MDA-N)
1 | CCOC1CCN(C(=O)c2ccccc2)O1 (stereo unspecified) | > 10 µM | > 10 µM | > 10 µM | > 10 µM | > 10 µM | > 10 µM | > 10 µM | > 10 µM | > 10 µM | > 10 µM | > 10 µM
2 | CC(=O)c1c(O)n(-c2ccc(C)cc2)c(=O)c2c(N)n[nH]c12 | > 100 µM | > 100 µM | > 100 µM | > 100 µM | > 100 µM | > 100 µM | > 100 µM | > 100 µM | > 100 µM | > 100 µM | > 100 µM
3 | COc1cc(OC)c(OC)cc1/C=C/c1cc[n+](C)c2ccccc12 |  | 26.4 µM | > 100 µM | > 100 µM | > 100 µM | > 100 µM | > 100 µM | > 100 µM | 75.1 µM | 50.9 µM | > 100 µM
4 | CC(CC[C@@]1(O)OC2C[C@H]3[C@@H]4CC[C@H]5CC(OC6OC(CO)C(OC7OC(CO)C(O)C(OC8OCC(O)C(O)C8O)C7OC7OC(CO)C(O)C(O)C7O)C(O)C6O)[C@H](O)CC5(C)[C@H]4CCC3(C)C2[C@@H]1C)COC1OC(CO)C(O)C(O)C1O (stereo partly specified) | 6.64 µM | 17.7 µM | 34.6 µM | 34.2 µM | 11.1 µM | 17.2 µM | 10.2 µM | 10.3 µM | > 50 µM | 48.2 µM | > 50 µM
5 | NCCCCC(NC(=O)C(N)Cc1ccc(O)cc1)C(=O)NC(Cc1ccc(O)cc1)C(=O)NC(CCCCN)C(=O)ON1C(=O)CCC1=O (stereo unspecified) (H-YKYK-OSu; configuration not given here) | > 100 µM | > 100 µM | > 100 µM | > 100 µM | > 100 µM | > 100 µM | > 100 µM |  | > 100 µM | > 100 µM | > 100 µM
6 | CCC(=O)Nc1ccc(NCC(=O)Nc2ccc(OC)cc2)cc1 | 51.6 µM | 32.7 µM | 70.1 µM | 35.5 µM | > 100 µM | 35.2 µM |  | > 100 µM | 89.9 µM | 64.2 µM | > 100 µM
7 | O=C1/C(=C/c2ccccc2)CCCc2ccccc21 | 36 µM |  |  |  | 67.1 µM |  | 31.4 µM | 54.7 µM | 35.1 µM | 33.3 µM | 36.7 µM
8 | COc1ccc2oc(C(=O)N3CC(CCl)c4ccc(N)cc43)cc2c1 (stereo unspecified) | 1.85 µM |  | 3.87 µM | 1.19 µM | > 100 µM | 0.532 µM | 1.74 µM | 1.62 µM | > 21.3 µM | 6.57 µM | 1.82 µM
9 | CCOc1cc(-c2nc3cc(F)ccc3s2)ccc1O | 30.2 µM | 32.2 µM | 28.1 µM | 41.6 µM | 37 µM | 35.4 µM | 34.9 µM | 32.2 µM | 28.7 µM | 31 µM | 31.7 µM
10 | C=CCCC(=O)C(=[N+]=[N-])C(=O)CCC(=O)c1ccccc1 | > 10 µM | > 10 µM | > 10 µM |  | > 10 µM | > 10 µM | > 10 µM | > 10 µM | > 10 µM | > 10 µM | > 10 µM
11 | COc1ccc(C2C3=C(COC3=O)OC(C)(C)Oc3cc4c(cc32)OCO4)cc1OC (stereo unspecified) | 99.5 µM | > 74.3 µM | 96.9 µM | > 100 µM | > 100 µM | 68.8 µM | > 100 µM | > 100 µM | 72.4 µM | > 100 µM | 39.2 µM
12 | [N-]=[N+]=Nc1ccc2c(c1)Sc1ccccc1N2CCCCN1CCN(C(=O)CCNC(=O)Cc2ccc(C(=O)c3ccccc3)cc2)CC1 | 10.6 µM | 4.39 µM | 28.7 µM | 6.08 µM | > 100 µM | > 100 µM | > 23.3 µM | > 100 µM | > 21.3 µM | 9.96 µM | 14.1 µM
13 | COc1ccc2c3c1OC1C(OC)(OC)CC4(C=C2)CN(C)CCC314 (stereo unspecified) | > 100 µM | > 100 µM | > 100 µM | > 100 µM | > 100 µM | > 100 µM | > 100 µM | > 100 µM |  | > 100 µM | > 100 µM
14 | COC(=O)CNC(=O)CCC(C)[C@H]1CCC2C3C(C[C@H](OC(C)=O)[C@@]21C)[C@@]1(C)CCC2(C[C@H]1C[C@H]3OC(C)=O)OOC1(CCCCC1)OO2 (stereo partly specified) | 3.9 µM | 8.12 µM | 5.03 µM | 5.98 µM | 3.36 µM | 4.23 µM | 3.63 µM |  | 6.29 µM | 20.1 µM | 3.36 µM
15 | COC(=O)C1(O)C(c2ccccc2)NC2(C)CCCC21 (stereo unspecified) | > 100 µM | > 100 µM | > 100 µM |  | > 100 µM | > 100 µM |  | > 100 µM | > 100 µM | > 100 µM | > 100 µM
16 | CN(C)N=Nc1ccc2[nH]c(=O)[nH]c2c1 | > 100 µM | > 100 µM | > 100 µM | > 100 µM | > 100 µM | > 100 µM | > 100 µM | > 100 µM | > 100 µM | > 100 µM | > 100 µM
17 | C1=NCCOCCN=Cc2ccc(cc2)OCc2cccc(n2)COc2ccc1cc2 | > 100 µM |  |  |  | > 100 µM | > 100 µM | > 100 µM | > 100 µM | > 100 µM | > 100 µM | > 100 µM
18 | CNC(=S)/C(C#N)=C(\N)N1CCCC1 |  | > 100 µM | > 100 µM | > 100 µM | > 100 µM | > 100 µM | > 100 µM | > 100 µM | > 100 µM |  | > 100 µM
19 | COc1cccc2cc(C(=O)NC34CC5CC(CC(C5)C3)C4)c(=N)oc12 | > 100 µM | > 100 µM | > 74.4 µM | > 100 µM | > 100 µM | > 79.9 µM | > 100 µM | > 100 µM | > 100 µM | > 100 µM | > 100 µM
